Source: PubChem BioAssay AID1996
≈ marks a conversion by molar mass, not a printed value.

Conditions: buffer; pH 7.4; 200.0 µM

solubility kinetic | SMILES
6.4 µg/mL (≈ 19.9 µM) | NC(=O)COc1ccc(C(=O)/C=C2/C(=O)Nc3ccccc32)cc1
> 44.9 µg/mL | O=C(CNC(=O)COc1ccccc1)NCc1cccnc1
> 36.3 µg/mL | O=C(NC1CCSC1)c1cccc(Cl)c1 (stereo unspecified)
> 46.2 µg/mL | O=C(COC(=O)c1ccco1)NCCc1ccc(Cl)cc1
54.2 µg/mL (≈ 132 µM) | COc1ccc(Br)cc1CN(C)C(=O)C1CC(=O)N(C2CCCC2)C1 (stereo unspecified)
48.5 µg/mL (≈ 109 µM) | Cc1ccc(NC(=O)COC(=O)CCNS(=O)(=O)c2c(Cl)cccc2Cl)cc1
> 59.1 µg/mL | NC(=O)C1CCN(C(=O)c2cc(-c3ccccc3Cl)nc3ccccc23)CC1
> 63.4 µg/mL | CCC1(c2ccccc2)NC(=O)N(CC(=O)Nc2ccc(N3CCOCC3)cc2)C1=O (stereo unspecified)
26.7 µg/mL (≈ 92.6 µM) | O=C(Cc1ccccc1[N+](=O)[O-])NCCC1=CCCCC1
> 53.9 µg/mL | Cc1ccc(S(=O)(=O)N2CCC(C(=O)Nc3cccnc3)CC2)cc1
> 47 µg/mL | COc1ccc(C(=O)NCCNC(=O)c2ccc(C)nc2)cc1
43.1 µg/mL (≈ 150 µM) | O=C(Nc1cnccc1C(F)(F)F)NC1CCCCC1
10.9 µg/mL (≈ 32 µM) | COc1cc(SC)ccc1C(=O)OCC(=O)NC(=O)NC(C)C
31 µg/mL (≈ 105 µM) | CC(CCN1CCN(c2ccccn2)CC1)c1ccccc1 (stereo unspecified)
29.4 µg/mL (≈ 96.3 µM) | COc1ccccc1NC(=O)C(C)OC(=O)CC1CCCC1 (stereo unspecified)
5.6 µg/mL (≈ 12.5 µM) | CCOC(=O)c1c(NC(=O)CN2CCN(C(=O)c3ccco3)CC2)sc(C(N)=O)c1C
> 45.2 µg/mL | CCOC(=O)c1cn2nc(Oc3cccc(F)c3)ccc2n1
44 µg/mL (≈ 143 µM) | C[C@@H]1CN(Cc2nc(-c3ccc(Cl)cc3)no2)C[C@H](C)O1
9.3 µg/mL (≈ 29.2 µM) | CC(=O)c1ccc(OCC(=O)NC(=O)NC2CCCCC2)cc1
37.5 µg/mL (≈ 142 µM) | O=C(Nc1cccc([N+](=O)[O-])c1)N1CCCCCC1
> 38.6 µg/mL | CSc1ccccc1NC(=O)Cc1ccccc1
< 0.2 µg/mL | Cc1ccnc(NC(=O)c2ccccc2NC(=O)c2ccccc2)c1
37.2 µg/mL (≈ 116 µM) | CC(=O)c1cccc(OCCCOc2cccc3cccnc23)c1
14 µg/mL (≈ 46.2 µM) | CCCC(=O)Nc1ccc(C(=O)COC(=O)C2CC2C)cc1 (stereo unspecified)

The remaining lines, values behind:

SMILES | solubility kinetic
Cc1cccc(N2CCN(C(=O)c3ccc(S(=O)(=O)N(C)c4ccccc4)cc3)CC2)c1C | 6.7 µg/mL (≈ 14.5 µM)
O=C(NNC(=O)c1cccs1)c1ccc(Cl)nc1 | > 42.3 µg/mL
O=C(Nc1ccccc1)NC1(C(=O)N2CCC(O)CC2)CCCCC1 | > 51.8 µg/mL
COc1ccccc1C1=NC(c2ccccc2)CN1c1ccccc1 (stereo unspecified) | 0.6 µg/mL (≈ 1.83 µM)
CC(C)(C)CC(=O)Nc1ccc(S(=O)(=O)NC2=NCCCCC2)cc1 | > 54.8 µg/mL
CCc1ccccc1NC(=O)[C@@H]1CCC(=O)N1C1OC(=O)c2ccccc21 (stereo partly specified) | > 54.7 µg/mL
COc1ccc2oc(=O)c(C(=O)Nc3ccccc3O)cc2c1 | 1 µg/mL (≈ 3.21 µM)
COc1ccc(NC(C)=O)cc1NC(=O)c1ccc2ccccc2c1 | 13 µg/mL (≈ 38.9 µM)
COc1cc2c(cc1OC)/C(=C/C(=O)c1cccc([N+](=O)[O-])c1)NCC2 | 0.5 µg/mL (≈ 1.41 µM)
Cl.NCCC(=O)N1c2ccccc2Sc2ccc(Cl)cc21 | 33.7 µg/mL
CC1(c2ccccc2)CC(C)(C)N(C(N)=O)c2ccccc21 (stereo unspecified) | 40.9 µg/mL (≈ 139 µM)
O=C(CNS(=O)(=O)c1ccc(F)cc1)Nc1ccccc1 | 44.1 µg/mL (≈ 143 µM)
O=C(OCC(=O)N1CCCCCC1)c1ccc[nH]c1=O | > 41.7 µg/mL
O=C(Nc1nccs1)C(c1ccccc1)N1CCCC1 (stereo unspecified) | > 43.1 µg/mL
Cc1ccc2nc(SCC3CCCCO3)[nH]c2c1 (stereo unspecified) | 37.4 µg/mL (≈ 143 µM)
CN(CCc1ccccn1)C(=O)Nc1cccc(Cl)c1 | 38.6 µg/mL (≈ 133 µM)
CCc1ccccc1NC(=O)c1cc([N+](=O)[O-])ccc1N1CCOCC1 | > 53.3 µg/mL
CC[n+]1oc(-c2ccccc2)cc1C.F[B-](F)(F)F | 37.4 µg/mL
Cl.Oc1ccccc1C1NCc2ccccc2-n2cccc21 (stereo unspecified) | 32.2 µg/mL
CCOc1ncccc1C(=O)OCC(=O)NCc1ccccc1 | 45.9 µg/mL (≈ 146 µM)
Cc1c(NC(=O)c2ccccc2NC(=O)c2ccccc2)cccc1C(=O)O | 54.5 µg/mL (≈ 146 µM)
O=C(NC1CCCC1)c1cc(-c2ccccc2O)on1 | 2.2 µg/mL (≈ 8.08 µM)
